Measured values published in patent US20240358693A1, “METHODS OF TREATING PAIN” (Aisa Pharma, Inc., priority 2023, published 2024).

Test system: participants with SSc-RP
Assay: Average severity of weekly RP attacks (VAS 0-10 cm scale)
Assay type: in vivo, human
From the text: The absolute change in average severity of weekly RP attacks (VAS 0-10 cm scale) from baseline to the end of each Dosing Period was and will be a secondary outcome variable. The sponsor-developed participant-informed diary will be used to record data. Average severity of weekly RP attacks is defined as the total severity scores of RP attacks divided by total number of RP attacks within the last 7 days of each dosing period. Total severity scores of RP attacks during the last 7 days of screening period divided by the total number of RP attacks will be used as baseline for the analysis of all periods. The variable will be calculated similar to frequency data as before.

[1] = Pooled Cilnidipine 20 mg and Cilnidipine 20 mg + Tadalafil 5 mg, n=4, Excluding Outliers, ITT Population - Part A
[2] = Pooled Cilnidipine 20 mg and Cilnidipine 20 mg + Tadalafil 5 mg, n=4, ITT Population - Part A
[3] = Pooled Cilnidipine 20 mg and Cilnidipine 20 mg + Tadalafil 5 mg, Excluding Outliers, ITT Population - Part A
[4] = Pooled Cilnidipine 20 mg and Cilnidipine 20 mg + Tadalafil 5 mg, Excluding Outliers, by Baseline RCS, first subgroup, ITT Population - Part A
[5] = Pooled Cilnidipine 20 mg and Cilnidipine 20 mg + Tadalafil 5 mg, Excluding Outliers, by Baseline RCS, second subgroup, ITT Population - Part A
[6] = Pooled Cilnidipine 20 mg and Cilnidipine 20 mg + Tadalafil 5 mg, ITT Population - Part A
[7] = Pooled Cilnidipine 20 mg and Cilnidipine 20 mg + Tadalafil 5 mg, first Baseline RCS subgroup block (not named), ITT Part A
[8] = Pooled Cilnidipine 20 mg and Cilnidipine 20 mg + Tadalafil 5 mg, first Baseline RCS subgroup block (not named), ITT Part A, score 0-10
[9] = Pooled Cilnidipine 20 mg and Cilnidipine 20 mg + Tadalafil 5 mg, second Baseline RCS subgroup block (not named), ITT Part A
[10] = Pooled Cilnidipine 20 mg and Cilnidipine 20 mg + Tadalafil 5 mg, second Baseline RCS subgroup block (not named), ITT Part A, score 0-10
[11] = Pooled Cilnidipine, n=3, Excluding Outliers, ITT Population - Part A
[12] = Pooled Cilnidipine, n=3, ITT Population - Part A
[13] = Pooled Cilnidipine, n=3, by Baseline RCS, first subgroup, ITT Population - Part A
[14] = Pooled Cilnidipine, first Baseline RCS subgroup block (not named), ITT Part A
[15] = Pooled Cilnidipine, first Baseline RCS subgroup block (not named), ITT Part A, score 0-10

## COCCOC(=O)C1=C(C)NC(C)=C(C(=O)OC/C=C/c2ccccc2)C1c1cccc([N+](=O)[O-])c1 (stereo not shown) [Cilnidipine, cilnidipine]
[1]
  Average Severity (0-10) of Weekly Symptomatic RP Attacks, Mean: 3.40
  Average Severity (0-10) of Weekly Symptomatic RP Attacks, Median: 3.18
  Average Severity of Weekly Symptomatic RP Attacks, Change from Baseline, Mean: −1.24
  Average Severity of Weekly Symptomatic RP Attacks, Change from Baseline, Median: −1.06
  Average Severity of Weekly Symptomatic RP Attacks, Percent Change from Baseline, Mean: −24.75%
  Average Severity of Weekly Symptomatic RP Attacks, Percent Change from Baseline, Median: −19.08%
[2]
  Average Severity (0-10) of Weekly Symptomatic RP Attacks, Mean: 3.40
  Average Severity (0-10) of Weekly Symptomatic RP Attacks, Median: 3.18
  Average Severity of Weekly Symptomatic RP Attacks, Change from Baseline, Mean: −1.24
  Average Severity of Weekly Symptomatic RP Attacks, Change from Baseline, Median: −1.06
  Average Severity of Weekly Symptomatic RP Attacks, Percent Change from Baseline, Mean: −24.75%
  Average Severity of Weekly Symptomatic RP Attacks, Percent Change from Baseline, Median: −19.08%
[3]
  Average Severity of Weekly RP Attacks (All Attacks), Change from Baseline, Mean: −1.02
  Average Severity of Weekly RP Attacks (All Attacks), Change from Baseline, Median: −0.96
  Average Severity of Weekly RP Attacks (All Attacks), Mean: 3.35
  Average Severity of Weekly RP Attacks (All Attacks), Median: 3.06
  Average Severity of Weekly RP Attacks (All Attacks), Percent Change from Baseline, Mean: −21.83%
  Average Severity of Weekly RP Attacks (All Attacks), Percent Change from Baseline, Median: −16.40%
[4]
  Average Severity of Weekly Symptomatic RP Attacks (Mean): 2.85
  Average Severity of Weekly Symptomatic RP Attacks (Median): 2.40
  Average Severity of Weekly Symptomatic RP Attacks, Change from Baseline, Mean: −1.06
  Average Severity of Weekly Symptomatic RP Attacks, Change from Baseline, Median: −0.33
  Average Severity of Weekly Symptomatic RP Attacks, Percent Change from Baseline, Mean: −24.28%
  Average Severity of Weekly Symptomatic RP Attacks, Percent Change from Baseline, Median: −12.02%
[5]
  Average Severity of Weekly Symptomatic RP Attacks (Mean): 5.06
  Average Severity of Weekly Symptomatic RP Attacks (Median): 5.06
  Average Severity of Weekly Symptomatic RP Attacks, Change from Baseline, Mean: −1.79
  Average Severity of Weekly Symptomatic RP Attacks, Change from Baseline, Median: −1.79
  Average Severity of Weekly Symptomatic RP Attacks, Percent Change from Baseline, Mean: −26.14%
  Average Severity of Weekly Symptomatic RP Attacks, Percent Change from Baseline, Median: −26.14%
[6]
  Average Severity of Weekly RP Attacks (All Attacks), Change from Baseline, Mean: −1.02
  Average Severity of Weekly RP Attacks (All Attacks), Change from Baseline, Median: −0.96
  Average Severity of Weekly RP Attacks (All Attacks), Mean: 3.35
  Average Severity of Weekly RP Attacks (All Attacks), Median: 3.06
  Average Severity of Weekly RP Attacks (All Attacks), Percent Change from Baseline, Mean: −21.83%
  Average Severity of Weekly RP Attacks (All Attacks), Percent Change from Baseline, Median: −16.40%
[7]
  Average Severity of Weekly RP Attacks (All Attacks), Percent Change from Baseline, Mean: −21.36%
  Average Severity of Weekly RP Attacks (All Attacks), Percent Change from Baseline, Median: −9.57%
[8]
  Average Severity of Weekly RP Attacks (All Attacks), Change from Baseline, Mean: −0.84
  Average Severity of Weekly RP Attacks (All Attacks), Change from Baseline, Median: −0.39
  Average Severity of Weekly RP Attacks (All Attacks), Mean: 2.78
  Average Severity of Weekly RP Attacks (All Attacks), Median: 2.40
[9]
  Average Severity of Weekly RP Attacks (All Attacks), Percent Change from Baseline, Mean: −23.23%
  Average Severity of Weekly RP Attacks (All Attacks), Percent Change from Baseline, Median: −23.23%
[10]
  Average Severity of Weekly RP Attacks (All Attacks), Change from Baseline, Mean: −1.53
  Average Severity of Weekly RP Attacks (All Attacks), Change from Baseline, Median: −1.53
  Average Severity of Weekly RP Attacks (All Attacks), Mean: 5.06
  Average Severity of Weekly RP Attacks (All Attacks), Median: 5.06
Pooled Cilnidipine (n = 7)
  Severity: −16%
[11]
  Average Severity (0-10) of Weekly Symptomatic RP Attacks, Mean: 2.79
  Average Severity (0-10) of Weekly Symptomatic RP Attacks, Median: 2.40
  Average Severity of Weekly Symptomatic RP Attacks, Change from Baseline, Mean: −0.87
  Average Severity of Weekly Symptomatic RP Attacks, Change from Baseline, Median: −0.33
  Average Severity of Weekly Symptomatic RP Attacks, Percent Change from Baseline, Mean: −19.22%
  Average Severity of Weekly Symptomatic RP Attacks, Percent Change from Baseline, Median: −12.02%
[12]
  Average Severity (0-10) of Weekly Symptomatic RP Attacks, Mean: 2.79
  Average Severity (0-10) of Weekly Symptomatic RP Attacks, Median: 2.40
  Average Severity of Weekly Symptomatic RP Attacks, Change from Baseline, Mean: −0.87
  Average Severity of Weekly Symptomatic RP Attacks, Change from Baseline, Median: −0.33
  Average Severity of Weekly Symptomatic RP Attacks, Percent Change from Baseline, Mean: −19.22%
  Average Severity of Weekly Symptomatic RP Attacks, Percent Change from Baseline, Median: −12.02%
[13]
  Average Severity (0-10) of Weekly Symptomatic RP Attacks, Mean: 2.79
  Average Severity (0-10) of Weekly Symptomatic RP Attacks, Median: 2.40
  Average Severity of Weekly Symptomatic RP Attacks, Change from Baseline, Mean: −0.87
  Average Severity of Weekly Symptomatic RP Attacks, Change from Baseline, Median: −0.33
  Average Severity of Weekly Symptomatic RP Attacks, Percent Change from Baseline, Mean: −19.22%
  Average Severity of Weekly Symptomatic RP Attacks, Percent Change from Baseline, Median: −12.02%
[14]
  Average Severity of Weekly RP Attacks (All Attacks), Percent Change from Baseline, Mean: −17.99%
  Average Severity of Weekly RP Attacks (All Attacks), Percent Change from Baseline, Median: −7.69%
[15]
  Average Severity of Weekly RP Attacks (All Attacks), Change from Baseline, Mean: −0.71
  Average Severity of Weekly RP Attacks (All Attacks), Change from Baseline, Median: −0.20
  Average Severity of Weekly RP Attacks (All Attacks), Mean: 2.55
  Average Severity of Weekly RP Attacks (All Attacks), Median: 2.40
